Experimental findings from publication PMC8458281, “Computational modeling and experimental validation of the EPI-X4/CXCR4 complex allows rational design of small peptide antagonists” (Communications Biology, 2021) are described below.

For experiment [1], the system named is CXCR4 D97E. Briefly: 12G5 antibody competition, 293T cells transfected with CXCR4 D97E. It counts as binding, human. Particulars: IC50 on CXCR4 D97E relative to wt. Here is the method: (§1) Fig. 4 The interactions of EPI-X4 and the EPI-X4 derivatives WSC02 and JM#21 with point-mutated CXCR4 were assessed by an antibody competition assay. Amino acid substitutions were introduced in the sequence of CXCR4 by site-directed mutagenesis, cloned into an IRES-eGFP expression vector, and transfected into 293 T cells. Afterward, cells were incubated with serially diluted EPI-X4 (a, b), WSC02 (c, d), or JM#21 (e, f) in presence of a constant concentration of CXCR4 specific antibody (clone 12G5). After 2 h, bound antibody was analyzed by flow cytometry. a, c, e) Representative dose-dependent replacement of 12G5 antibody by peptides. b, d, f) IC50 values were calculated by nonlinear regression. Shown are data derived from at least three individual experiments ± SEM. IC50 values were set to 1000 µM (EPI-X4 and WSC02) or 100 µM (JM#21) if the value exceeds the maximally used concentration. *p ≤ 0.05, ***p ≤ 0.001 (one-way ANOVA for comparison with wt). For IC50 values see Table 1. For all binding curves see also Fig. S8.
(§2) Mutated CXCR4 constructs were transfected into 293 T cells that have a very low endogenous expression level of wild-type CXCR4. Transfected cells were then analyzed for CXCR4 surface expression (Fig. S5a) and EPI-X4 binding using a flow cytometry-based antibody competition assay (Fig. S5b, c)[33]. […]

For experiment [2], the system named is CXCR4 D97S. Briefly: 12G5 antibody competition, 293T cells transfected with CXCR4 D97S. It is filed as binding, human. Particulars: IC50 on CXCR4 D97S relative to wt. Here is the method:
as §1, §2

Experiment [3] has as its system CXCR4 D97N. The experiment can be described thus: 12G5 antibody competition, 293T cells transfected with CXCR4 D97N. It is filed as binding, human. The conditions noted are these: IC50 on CXCR4 D97N relative to wt. Here is the method: as §1, §2
The subject of experiment [4] is CXCR4 V112L. The experiment can be described thus: 12G5 antibody competition, 293T cells transfected with CXCR4 V112L. It is filed as binding, human. Particulars: IC50 on CXCR4 V112L relative to wt. Here is the method: as §1, §2
For experiment [5], the system named is CXCR4 D262A. Briefly: 12G5 antibody competition, 293T cells transfected with CXCR4 D262A. It is filed as binding, human. The conditions noted are these: IC50 on CXCR4 D262A relative to wt. Here is the method: as §1, §2
The subject of experiment [6] is CXCR4 E277A. Briefly: 12G5 antibody competition, 293T cells transfected with CXCR4 E277A. Particulars: IC50 on CXCR4 E277A relative to wt. It counts as binding, human. The method, then: as §1, §2
Experiment [7] concerns the target T1, CXCR4 D97S (human, UniProt P61073-1 1-352, D97S).
T1 construct: human CXCR4, isoform 1 or b; source: 293T cells, transiently transfected (pcDNA3.1 CXCR4-IRES-eGFP), on cells
The experiment can be described thus: flow cytometry on cells; 12G5 antibody competition on 293T cells transiently transfected with CXCR4 wt or mutants (IRES-eGFP vector), eGFP-positive cells gated; serially diluted peptide with a constant concentration of CXCR4 antibody clone 12G5, 2 h; bound antibody read; IC50 by nonlinear regression. Particulars: one partner purified. (In general: Flow cytometry measures light scatter and fluorescence of single cells or particles in a stream.)

Experiment [8] concerns the target T2, CXCR4 D97N (human, UniProt P61073-1 1-352, D97N).
T2 construct: human CXCR4, isoform 1 or b; source: 293T cells, transiently transfected (pcDNA3.1 CXCR4-IRES-eGFP), on cells
The experiment is described as above. Particulars: one partner purified.

For experiment [9], the target named is T3, CXCR4 D262A (human, UniProt P61073-1 1-352, D262A).
T3 construct: human CXCR4, isoform 1 or b; source: 293T cells, transiently transfected (pcDNA3.1 CXCR4-IRES-eGFP), on cells
T3 sequence (P61073 whole entry D262A, canonical isoform): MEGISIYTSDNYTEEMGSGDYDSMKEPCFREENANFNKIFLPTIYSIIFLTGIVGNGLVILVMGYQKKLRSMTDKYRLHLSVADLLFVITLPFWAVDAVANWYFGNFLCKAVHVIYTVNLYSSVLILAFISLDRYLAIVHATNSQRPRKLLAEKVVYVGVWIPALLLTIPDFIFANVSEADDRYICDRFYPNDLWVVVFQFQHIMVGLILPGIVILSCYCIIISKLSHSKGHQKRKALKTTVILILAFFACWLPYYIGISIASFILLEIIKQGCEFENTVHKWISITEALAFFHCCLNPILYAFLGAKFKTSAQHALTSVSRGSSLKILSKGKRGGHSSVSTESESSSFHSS
Described as above. Particulars: one partner purified.

Experiment [10] has as its target T4, CXCR4 E277A (human, UniProt P61073-1 1-352, E277A).
T4 construct: human CXCR4, isoform 1 or b; source: 293T cells, transiently transfected (pcDNA3.1 CXCR4-IRES-eGFP), on cells
Described as above. The conditions noted are these: one partner purified.

T4 sequence (P61073 whole entry E277A, canonical isoform): as the sequence (P61073 whole entry D262A, canonical isoform) above, with A262D, E277A counted along it
T2 sequence (P61073 whole entry D97N, canonical isoform): as the sequence (P61073 whole entry D262A, canonical isoform) above, with D97N, A262D counted along it
T1 sequence (P61073 whole entry D97S, canonical isoform): as the sequence (P61073 whole entry D262A, canonical isoform) above, with D97S, A262D counted along it

For the molecule “IVRWSKKVPCVS [WSC02, first-generation C-terminally truncated 12-mer derivative of EPI-X4 with four substitutions]”, the Fold change in experiment [1] came to 8; in experiment [2], 18; in experiment [3], 466; in [4], 0.4; in [5], 0.4; in experiment [6], 0.7.

B1: EPI-X4 (Alb408-423) (peptide)
peptide: LVRYTKKVPQVSTPTL
notes: source: synthetic peptide (Fmoc solid-phase synthesis, HPLC-purified)
For the molecule B1, the IC50 in experiment [7] was 785 µM; in [8], > 1000 µM; in experiment [9], 5.21 µM; in experiment [10] it was 8.91 µM.

What is called IC50 is the concentration at which inhibition is half-maximal. The low end stands for greater potency, the high end for weaker potency.
